Results on eleven compounds are retold here after ChEMBL document CHEMBL1201862, “PubChem BioAssay data set” (2004).

Each structure is given as a SMILES string.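 Growth conditions: 96-well plates. Treatment: test compound, 48 hours, 5 concentrations. Analysis: linear interpolation between bracketing concentrations; unreached endpoints set to highest concentration. GI50 is the concentration that inhibits growth by half.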 The source made the active and inactive calls. Rule as the data show it: active = GI50 up to about 1.1 µM and inactive = higher. Where a SMILES comes first, the peptide text is derived from it. [ ]: non-standard residue; d: D form. The star is where a group is joined. Cbz = O=C(OCc1ccccc1)*; Aib = CC(C)(N)C(=O)O

Holding throughout (test): NCI tumour cell line growth inhibition, 48 h
For test [1], the system named is CAKI-1.
Test [2] deals with COLO 205.
Test [3] has as its system DU-145.
Test [4] relates to HCC 2998.
The test system of test [5] is HCT-116.
Test [6] deals with HOP-92.
The subject of test [7] is KM12.
In test [8] the test system is MCF7.
Test [9] concerns NCI-H23.
Test [10] concerns NCI/ADR-RES.
Test [11] has as its system OVCAR-3.
Test [12] deals with OVCAR-4.
In test [13] the test system is OVCAR-5.
Test [14] has as its system RXF 393.
Test [15] has as its system SK-MEL-28.
In test [16] the test system is SNB-75.
Test [17] has as its system T47D.
Test [18] relates to UACC-62.
Test [19] has as its system BT-549.
Test [20] deals with HL-60.

As to `CN(C)/C=N/Cc1ccc2c(c1)OCO2`, the GI50 in test [1], in test [2], in [3], in test [4], in test [5] and in test [6] was > 100 µM (inactive) throughout. Further, the GI50 in test [7], in [8], in [9], in test [10], in test [11] and in test [12] was > 100 µM (inactive) in each case. Moreover, the GI50 in test [13], in [14], in [15], in [16], in [17] and in [18] was > 100 µM (inactive) throughout.
As to `Cc1csc2c(=O)n(COCc3ccccc3)c(=O)[nH]c12`, the GI50 in test [19], in test [1], in test [2], in [3], in test [5] and in [20] was > 100 µM (inactive) in each case. In addition, the GI50 is 40.8 µM (inactive) in [6]; > 100 µM (inactive) in test [7]; 95.9 µM (inactive) in test [8]; > 100 µM (inactive) in [9]; > 100 µM (inactive) in [10]; > 100 µM (inactive) in test [11]. The GI50 in [12], in test [13], in test [14], in test [15] and in [16] was > 100 µM (inactive) in each case.
For `S=C1SC(c2ccc(Cl)cc2)(c2ccc(Cl)cc2)c2ccccc21`, the GI50 in [19] was 79.1 µM (inactive); in test [1], 53.8 µM (inactive); in [2] it was 80.5 µM (inactive); in test [3], 55.1 µM (inactive); in test [4] it was 59.8 µM (inactive); in test [5], 24.7 µM (inactive). Besides, the GI50 is 44.4 µM (inactive) in [6]; 40.3 µM (inactive) in test [7]; 38.5 µM (inactive) in test [8]; 71 µM (inactive) in [9]; > 100 µM (inactive) in [10]; 72.1 µM (inactive) in test [11]. In addition, the GI50 was > 100 µM (inactive) in test [12]; > 100 µM (inactive) in test [13]; 56.9 µM (inactive) in test [14]; 67.8 µM (inactive) in test [15]; > 100 µM (inactive) in test [16]; > 100 µM (inactive) in test [18].
In the case of `C=CCNC(=O)/C(Cc1cc(Br)c(OC)c(Br)c1O)=N\O`, the GI50 is 3.03 µM (inactive) in test [19]; 5.18 µM (inactive) in [1]; 12.3 µM (inactive) in test [2]; 5.3 µM (inactive) in [3]; 4.25 µM (inactive) in test [4]; 3.01 µM (inactive) in test [5]. Besides, the GI50 was 1.29 µM (inactive) in test [20]; 4.65 µM (inactive) in test [6]; 2.77 µM (inactive) in test [7]; 4.17 µM (inactive) in test [8]; 4.16 µM (inactive) in [9]; 2.44 µM (inactive) in test [10]. The GI50 was 2.38 µM (inactive) in [11]; 7.23 µM (inactive) in [12]; 5.43 µM (inactive) in [13]; 3.53 µM (inactive) in test [15]; 8.75 µM (inactive) in test [18].
In the case of `Oc1ccc2ccccc2c1/N=N\c1cccc2ccccc12`, the GI50 was > 100 µM (inactive) in [1]; > 100 µM (inactive) in [2]; > 100 µM (inactive) in test [3]; > 100 µM (inactive) in test [5]; 52.8 µM (inactive) in test [20]; > 100 µM (inactive) in test [6]. In addition, the GI50 in test [7], in test [9], in test [10], in test [11], in [12] and in test [13] was > 100 µM (inactive) in each case. Besides, the GI50 in [14], in [15], in test [16], in test [17] and in [18] was > 100 µM (inactive) in each case.
In the case of `O=C1NC(=O)C(COCc2ccccc2)C2=C1SCCC2` (stereo unspecified), the GI50 in test [19], in test [1], in test [2], in test [3], in [4] and in [5] was > 100 µM (inactive) throughout. In addition, the GI50 in [20], in test [6], in test [7], in test [8], in [9] and in test [10] was > 100 µM (inactive) throughout. In addition, the GI50 in test [11], in test [12], in [14], in test [15] and in test [16] was > 100 µM (inactive) throughout.
Consider `CCC(/C=C/C1OC(=O)C=CC1C)=C\C(C)C/C=C/C(C)=C/C(C)C(=O)C(C)C(O)C(C)C/C(C)=C/C(=O)O` (stereo unspecified), for which the GI50 was 2.22e-06 µM (active) in [19]; 0.807 µM (active) in test [1]; 3.69 µM (inactive) in [2]; 0.000264 µM (active) in [3]; 6.76e-06 µM (active) in [4]; 1.17 µM (inactive) in test [5]. Also, the GI50 is 0.855 µM (active) in [20]; 4.98e-06 µM (active) in test [6]; 4.54 µM (inactive) in test [7]; 1.03 µM (active) in [8]; 1.04 µM (active) in test [9]; 0.000115 µM (active) in test [10]. The GI50 is 0.649 µM (active) in test [11]; 1.64 µM (inactive) in [12]; 6.65 µM (inactive) in [13]; 1.13 µM (inactive) in test [14]; 2.65 µM (inactive) in test [15]; 1.91 µM (inactive) in test [16]. In addition, the GI50 in [18] is 1.56 µM (inactive).
In the case of `CC(=O)CC1(OC(=O)C2C(C=C(C)C)C2(C)C)C(=O)Nc2ccccc21` (stereo unspecified), the GI50 in [1], in test [2], in [3], in [4], in test [5] and in test [20] was > 100 µM (inactive) each time. Besides, the GI50 in test [7] was > 100 µM (inactive); in [9] it was > 100 µM (inactive); in [10], 68.5 µM (inactive); in test [11] it was 54.2 µM (inactive); in test [12], 84.9 µM (inactive); in test [13], > 100 µM (inactive). For the same compound, the GI50 is > 100 µM (inactive) in test [14]; > 100 µM (inactive) in test [15]; 51.3 µM (inactive) in test [16]; > 100 µM (inactive) in [17]; > 100 µM (inactive) in test [18].
In the case of `CC12OC1(C)C1C(=O)OCC1C2=O` (stereo unspecified), the GI50 in [19] was > 100 µM (inactive); in test [1], 29.2 µM (inactive); in [2], 37.4 µM (inactive); in test [3], > 100 µM (inactive); in test [4], > 100 µM (inactive); in test [5] it was 66.4 µM (inactive). In addition, the GI50 was 20.6 µM (inactive) in test [20]; > 100 µM (inactive) in test [6]; 44.7 µM (inactive) in test [7]; 61.7 µM (inactive) in test [8]; > 100 µM (inactive) in [9]; 51.3 µM (inactive) in [10]. In addition, the GI50 in test [11] was 38.9 µM (inactive); in [12], > 100 µM (inactive); in test [13] it was 59.4 µM (inactive); in test [14], 31.8 µM (inactive); in [15], > 100 µM (inactive); in test [16] it was 99.3 µM (inactive). Also, the GI50 in [18] is 99.3 µM (inactive).
As for `O=C(/C=C/c1cccc(Br)c1)c1cccs1`, the GI50 is 16.1 µM (inactive) in test [1]; 21 µM (inactive) in [2]; > 10 µM (inactive) in test [3]; 23 µM (inactive) in test [4]; 5.47 µM (inactive) in test [5]; 3.83 µM (inactive) in test [20]. The GI50 in test [7] was 13.7 µM (inactive); in test [8], 3.44 µM (inactive); in [9], 19.5 µM (inactive); in test [10], 23.6 µM (inactive); in [12] it was 16.5 µM (inactive); in test [15] it was 18.1 µM (inactive). Moreover, the GI50 is 14.6 µM (inactive) in test [16], 15.3 µM (inactive) in test [17] and 16.2 µM (inactive) in [18].
With `CC(C)(NC(=O)C(C)(C)NC(=O)OCc1ccccc1)C(=O)O` (Cbz-[Aib]-[Aib]-OH), the GI50 in [1] was > 100 µM (inactive); in [2], > 10 µM (inactive); in [3] it was > 100 µM (inactive); in test [4], > 100 µM (inactive); in test [5] it was > 100 µM (inactive); in test [6] it was > 100 µM (inactive). Moreover, the GI50 in [7], in [8], in test [9], in [10], in test [11] and in test [12] was > 100 µM (inactive) throughout. Further, the GI50 in test [13], in test [15], in test [16], in [17] and in test [18] was > 100 µM (inactive) throughout.
